Format in all cases: cell-based
One assay has as its system Enterococcus faecalis. Description: MIC by agar-dilution, Enterococcus faecalis. The note with it: agar with 5% defibrinated horse blood, 10^4 CFU/spot, 37° C., 5% carbon dioxide, 48 hours. The method, then:
(§1) The following results were obtained on a standard in-vitro test system. The activity is described in terms of the minimum inhibitory concentration (MIC) detemined by the agar-dilution technique with an inoculum size of 10^4 CFU/spot. Typically, compounds are active in the range 0.01 to 256 μg/ml. Streptococci and enterococci were tested on agar supplemented with 5% defibrinated horse blood, an inoculum of 10^4 CFU/spot and an incubation temperature of 37° C. in an atmosphere of 5% carbon dioxide for 48 hours—blood is required for the growth of some of the test organisms.

Assay [1] concerns Coagulase Negative Staphylococci MR (methicillin resistant). The experiment in a line: MIC by agar-dilution, Coagulase Negative Staphylococci MR. The note with it: inoculum 10^4 CFU/spot, 37° C., 24 hours. The method, then: (§2) The following results were obtained on a standard in-vitro test system. The activity is described in terms of the minimum inhibitory concentration (MIC) detemined by the agar-dilution technique with an inoculum size of 10^4 CFU/spot. Typically, compounds are active in the range 0.01 to 256 μg/ml.
(§3) Staphylococci were tested on agar, using an inoculum of 10^4 CFU/spot and an incubation temperature of 37° C. for 24 hours—standard test conditions for the expression of methicillin resistance.

The subject of assay [2] is Streptococcus pyogenes C203. The experiment in a line: MIC by agar-dilution, Streptococcus pyogenes C203. The note with it: agar with 5% defibrinated horse blood, 10^4 CFU/spot, 37° C., 5% carbon dioxide, 48 hours. The method, then: as §1
The test system of assay [3] is Staphylococcus aureus Oxford. Description: MIC by agar-dilution, Staphylococcus aureus Oxford. The note with it: inoculum 10^4 CFU/spot, 37° C., 24 hours. The method, then:
as §2, §3

In assay [4] the test system is Staphylococcus aureus Novb. Res (Novobiocin resistant). The experiment in a line: MIC by agar-dilution, Staphylococcus aureus Novb. Res. The note with it: inoculum 10^4 CFU/spot, 37° C., 24 hours. The method, then: as §2, §3
Assay [5] deals with Coagulase Negative Staphylococci MS (methicillin sensitive). Description: MIC by agar-dilution, Coagulase Negative Staphylococci MS. The note with it: inoculum 10^4 CFU/spot, 37° C., 24 hours. The method, then: as §2, §3
A further assay relates to Bacillus subtilis. The experiment in a line: MIC by agar-dilution, Bacillus subtilis. The note with it: inoculum 10^4 CFU/spot. The method, then: as §2
Assay [6] relates to Staphylococcus aureus MRQR (methicillin resistant quinolone resistant). Description: MIC by agar-dilution, Staphylococcus aureus MRQR. The note with it: inoculum 10^4 CFU/spot, 37° C., 24 hours. The method, then: as §2, §3

The results in this text go back to patent US7087629B2, “Heterocyclylaminomethyloxazolidinones as antibacterials” (AstraZeneca AB, priority 1998, dated 2006).

≈ marks a conversion by molar mass, not a printed value.

In general, MIC refers to the lowest concentration that inhibits growth of the organism. A high value points to a less susceptible organism. As for `O=C1O[C@@H](CNc2ccon2)CN1c1ccc(N2CCOCC2)c(F)c1` [Example 2, 5(S)-Isoxazol-3-ylaminomethyl-3-(3-fluoro-4-morpholinophenyl)-oxazolidin-2-one], the minimum inhibitory concentration (MIC) in the assay on Enterococcus faecalis is 2 µg/mL (≈ 5.52 µM); in assay [1], 1 µg/mL (≈ 2.76 µM); in assay [2], 1 µg/mL (≈ 2.76 µM); in assay [3], 0.5 µg/mL (≈ 1.38 µM); in assay [4], 1 µg/mL (≈ 2.76 µM); in assay [5] it was 0.5 µg/mL (≈ 1.38 µM). In addition, the MIC against Bacillus subtilis was found to be 0.5 µg/mL (≈ 1.38 µM); in assay [6], 1 µg/mL (≈ 2.76 µM).
